Reference: patent US8691804B2 (Evotec AG, priority 2008, dated 2014)

molecular target: T1, human H3 receptors (Homo sapiens, UniProt Q9Y5N1); assay: cAMP quantification assay for human H3 receptor testing; type: cell-based; settings: CHO-K1 cells expressing human H3 receptors; inhibition of agonist-induced decrease of cAMP; 100 nM histamine, 10 μM forskolin; read-out: Potency range (IC50 values)
T1 construct: host or cells: CHO-K1
Protocol: CHO—K1 cell line expressing human H3 receptors were purchased from Euroscreen (Gosselies, Belgium, Cat. no.: ES-392-C)
Human H3 receptor-expressing cell-lines were grown in Ham's F12 [Sigma, Cat. no. N6658], supplemented with 10% FBS [Sigma, Cat. no. F9665], 400 μg/ml G418 [Sigma, Cat. no. N1876] and 250 μg/ml Zeocin [Invitrogen, Cat. no. 46-0509]) according to the protocol provided by Euroscreen.
The assay measures the ability of test compounds to inhibit Histamine receptor agonist-induced decrease of intracellular free cAMP (receptor is Gi coupled).
Specifically, a cAMP quantification assay system from DiscoveRx (cAMP XS+; Cat. no. 90-0075) was used.
For the cAMP assay, confluent cells were detached from the culture vessels with 1× trypsin-EDTA solution (Sigma), and seeded into 384-well Costar plates (white, clear bottom, Cat. no. 3707) at a density of 10,000 cells per well. Cells were seeded in a volume of 50 μl in medium without antibiotics and incubated overnight in a humidified atmosphere with 5% CO2 at 37° C. The cAMP assay was performed according to the protocol provided by DiscoveRx.
The cell culture medium was removed and the cells washed once with PBS (50 μl per well). The plates were emptied by inversion and 7.5 μl/well of compound in PBS (containing 1 mM IBMX and 0.03% BSA) were added and incubated for 30 min at 37° C.
Subsequent 7.5 μl/well specific agonist solution was added and the plates for another 30 min incubated at 37° C.
hH3:100 nM histamine, 10 μM forskolin in PBS (containing 1 mM IBMX and 0.03% BSA)
After the incubation with the agonist, 5 μl/well cAMP XS antibody solution was added followed by 20 μl/well Gal/EII/Lysis (1:5:19)+ED (1:1). The plates were incubated for one hour at room temperature and afterwards 20 μl/well EA reagent was added. The luminescence was developed for approximately three hours at room temperature and the plates were read out using a ‘BMG Novostar’ plate reader.
Test compounds were assayed at 8 concentrations in triplicate. Serial 10-fold dilutions in 100% DMSO were made at a 100-times higher concentration than the final concentration and then diluted with a 2 step protocol in assay buffer to reach the required assay concentrations and 1% DMSO. […]

T1 sequence (Q9Y5N1 whole entry): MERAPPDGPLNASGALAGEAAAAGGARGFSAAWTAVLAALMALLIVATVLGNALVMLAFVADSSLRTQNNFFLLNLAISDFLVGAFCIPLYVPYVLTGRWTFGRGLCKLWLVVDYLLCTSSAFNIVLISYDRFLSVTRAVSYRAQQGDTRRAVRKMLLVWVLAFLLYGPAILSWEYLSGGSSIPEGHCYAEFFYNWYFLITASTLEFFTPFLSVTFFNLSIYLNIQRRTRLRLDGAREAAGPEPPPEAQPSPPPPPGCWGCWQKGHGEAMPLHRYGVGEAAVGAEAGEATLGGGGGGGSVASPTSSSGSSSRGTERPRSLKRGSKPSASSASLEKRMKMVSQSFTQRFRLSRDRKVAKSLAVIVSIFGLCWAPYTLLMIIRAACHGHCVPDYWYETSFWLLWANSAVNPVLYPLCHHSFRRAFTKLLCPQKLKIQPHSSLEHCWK

| IC50 [µM] | SMILES |
| --- | --- |
| < 0.1 | Cc1cc(OC2CN(C(=O)N3CCCN(C4CCC4)CC3)C2)cc(C)n1 [Example 69, 1-cyclobutyl-4-({3-[(2,6-dimethylpyridin-4-yl)oxy]azetidin-1-yl}carbonyl)-1,4-diazepane] |
| < 0.1 | N#Cc1ccc(O[C@H]2C[C@@H](C(=O)N3CCCN(C4CCC4)CC3)C2)cc1 [Example 103, 4-({cis-3-[(4-cyclobutyl-1,4-diazepan-1-yl)carbonyl]cyclobutyl}oxy)benzonitrile] |
| < 0.1 | CNC(=O)c1ccc(OC2CN(C(=O)N3CCCN(C4CCC4)CC3)C2)cc1 [Example 8, 4-({1-[(4-cyclobutyl-1,4-diazepan-1-yl)carbonyl]azetidin-3-yl}oxy)-N-methylbenzamide] |
| < 0.1 | N#Cc1ccc(CNC2CN(C(=O)N3CCCN(C4CCC4)CC3)C2)cc1 [Example 112, 4-[({1-[(4-cyclobutyl-1,4-diazepan-1-yl)carbonyl]azetidin-3-yl}amino)methyl]benzonitrile] |
| < 0.1 | O=C(N1CCCN(C2CCC2)CC1)N1CC(Oc2ccc(Cl)cc2)C1 [Example 14, 1-{[3-(4-chlorophenoxy)azetidin-1-yl]carbonyl}-4-cyclobutyl-1,4-diazepane] |
| < 0.1 | O=C(N1CCN(C2CCC2)CC1)N1CC(Oc2ccc(F)cc2)C1 [Example 41, 1-cyclobutyl-4-{[3-(4-fluorophenoxy)azetidin-1-yl]carbonyl}piperazine] |
| < 0.1 | CNC(=O)c1ccc(OC2CN(C(=O)N3CCCN(C4CCC4)CC3)C2)c(C)c1 [Example 34, 4-({1-[(4-cyclobutyl-1,4-diazepan-1-yl)carbonyl]azetidin-3-yl}oxy)-N,3-dimethylbenzamide] |
| < 0.1 | O=C(N1CCCN(C2CCC2)CC1)N1CC(Oc2ccc(Br)nc2)C1 [Example 24, 1-({3-[(6-bromopyridin-3-yl)oxy]azetidin-1-yl}carbonyl)-4-cyclobutyl-1,4-diazepane] |
| < 0.1 | CN1CCc2cc(OC3CN(C(=O)N4CCCN(C5CCC5)CC4)C3)ccc2C1=O [Example 117, 6-({1-[(4-cyclobutyl-1,4-diazepan-1-yl)carbonyl]azetidin-3-yl}oxy)-2-methyl-3,4-dihydroisoquinolin-1(2H)-one] |
| < 0.1 | O=C(N1CCCN(C2CCC2)CC1)N1CC(Oc2ccc(OC(F)F)cc2)C1 [Example 89, 1-cyclobutyl-4-({3-[4-(difluoromethoxy)phenoxy]azetidin-1-yl}carbonyl)-1,4-diazepane] |
| < 0.1 | O=C(N1CCCN(C2CCC2)CC1)N1CC(Oc2ccc(Cl)cc2F)C1 [Example 90, 1-{[3-(4-chloro-2-fluorophenoxy)azetidin-1-yl]carbonyl}-4-cyclobutyl-1,4-diazepane] |
| < 0.1 | O=C(CC1CC1)N1CCc2nc(OC3CN(C(=O)N4CCCN(C5CCC5)CC4)C3)ccc2C1 [Example 84, 2-({1-[(4-cyclobutyl-1,4-diazepan-1-yl)carbonyl]azetidin-3-yl}oxy)-6-(cyclopropylacetyl)-5,6,7,8-tetrahydro-1,6-naphthyridine] |
| < 0.1 | CNC(=O)c1ccc(OC2CN(C(=O)N3CCCN(C4CCC4)CC3)C2)cc1F [Example 47, 4-({1-[(4-cyclobutyl-1,4-diazepan-1-yl)carbonyl]azetidin-3-yl}oxy)-2-fluoro-N-methylbenzamide] |
| < 0.1 | COC1CN(C(=O)N2CCCN(C3CCC3)CC2)C1 [Example 96, 1-cyclobutyl-4-[(3-methoxyazetidin-1-yl)carbonyl]-1,4-diazepane] |
| < 0.1 | O=C(N1CCCN(C2CCC2)CC1)N1CC(Oc2ccc3ccccc3c2)C1 [Example 152, 1-cyclobutyl-4-{[3-(naphthalen-2-yloxy)azetidin-1-yl]carbonyl}-1,4-diazepane] |
| 0.1 to 0.5 | CNC(=O)C1CN(C(=O)N2CCCN(C3CCC3)CC2)C1 [Example 133, 1-[(4-cyclobutyl-1,4-diazepan-1-yl)carbonyl]-N-methylazetidine-3-carboxamide] |
| < 0.1 | NC(=O)c1cc(OC2CN(C(=O)N3CCCN(C4CCC4)CC3)C2)ccn1 [Example 72, 4-({1-[(4-cyclobutyl-1,4-diazepan-1-yl)carbonyl]azetidin-3-yl}oxy)pyridine-2-carboxamide] |
| < 0.1 | CC(C)(O)c1ccc(O[C@H]2C[C@@H](C(=O)N3CCCN(C4CCC4)CC3)C2)cn1 [Example 165, 2-[5-({cis-3-[(4-cyclobutyl-1,4-diazepan-1-yl)carbonyl]cyclobutyl}oxy)pyridin-2-yl]propan-2-ol] |

| IC50 [µM] | SMILES |
| --- | --- |
| < 0.1 | O=C(N1CCCN(C2CCC2)CC1)N1CC(Oc2cccc(C(F)(F)F)c2)C1 [Example 28, 1-cyclobutyl-4-({3-[3-(trifluoromethyl)phenoxy]azetidin-1-yl}carbonyl)-1,4-diazepane] |
| < 0.1 | O=C(C1CN(C(=O)N2CCCN(C3CCC3)CC2)C1)N1CCCC1 [Example 127, 1-cyclobutyl-4-{[3-(pyrrolidin-1-ylcarbonyl)azetidin-1-yl]carbonyl}-1,4-diazepane] |
| < 0.1 | O=C(N1CCCN(C2CCC2)CC1)N1CC(Oc2cnccc2Cl)C1 [Example 48, 1-({3-[(4-chloropyridin-3-yl)oxy]azetidin-1-yl}carbonyl)-4-cyclobutyl-1,4-diazepane] |
| < 0.1 | CNC(=O)c1ccc(OC2CN(C(=O)N3CCCN(C4CCC4)CC3)C2)nc1 [Example 3, 6-({1-[(4-cyclobutyl-1,4-diazepan-1-yl)carbonyl]azetidin-3-yl}oxy)-N-methylpyridine-3-carboxamide] |
| < 0.1 | O=C(N1CCCN(C2CCC2)CC1)N1CC(Oc2ccc(Cn3cccn3)cn2)C1 [Example 17, 1-cyclobutyl-4-[(3-{[5-(1H-pyrazol-1-ylmethyl)pyridin-2-yl]oxy}azetidin-1-yl)carbonyl]-1,4-diazepane] |
| < 0.1 | Cc1ccc(N(C)C(=O)C2CN(C(=O)N3CCCN(C4CCC4)CC3)C2)cn1 [Example 145, 1-[(4-cyclobutyl-1,4-diazepan-1-yl)carbonyl]-N-methyl-N-(6-methylpyridin-3-yl)azetidine-3-carboxamide] |
| < 0.1 | Cc1ccc(COC2CN(C(=O)N3CCCN(C4CCC4)CC3)C2)cn1 [Example 164, 1-cyclobutyl-4-({3-[(6-methylpyridin-3-yl)methoxy]azetidin-1-yl}carbonyl)-1,4-diazepane] |
| < 0.1 | CCN1CCCN(C(=O)N2CC(Oc3ccc(C(C)(C)O)nc3)C2)CC1 [Example 157, 2-[5-({1-[(4-ethyl-1,4-diazepan-1-yl)carbonyl]azetidin-3-yl}oxy)pyridin-2-yl]propan-2-ol] |
| < 0.1 | O=C(C1CC1)N1CCc2nc(OC3CN(C(=O)N4CCCN(C5CCC5)CC4)C3)ccc2C1 [Example 83, 2-({1-[(4-cyclobutyl-1,4-diazepan-1-yl)carbonyl]azetidin-3-yl}oxy)-6-(cyclopropylcarbonyl)-5,6,7,8-tetrahydro-1,6-naphthyridine] |
| < 0.1 | O=C(N1CCCN(C2CCC2)CC1)N1CC(O)C1 [Example 1, 1-[(4-cyclobutyl-1,4-diazepan-1-yl)carbonyl]azetidin-3-ol] |
| < 0.1 | NC1CN(C(=O)N2CCCN(C3CCC3)CC2)C1 [Example 109, 1-[(4-cyclobutyl-1,4-diazepan-1-yl)carbonyl]azetidin-3-amine] |
| < 0.1 | N#Cc1ccccc1OC1CN(C(=O)N2CCCN(C3CCC3)CC2)C1 [Example 31, 2-({1-[(4-cyclobutyl-1,4-diazepan-1-yl)carbonyl]azetidin-3-yl}oxy)benzonitrile] |
| < 0.1 | O=C(N1CCCN(C2CCC2)CC1)N1CC(Oc2ccc(OC(F)(F)F)cc2)C1 [Example 88, 1-cyclobutyl-4-({3-[4-(trifluoromethoxy)phenoxy]azetidin-1-yl}carbonyl)-1,4-diazepane] |
| < 0.1 | O=C(C1CN(C(=O)N2CCCN(C3CCC3)CC2)C1)N1CCC1 [Example 126, 1-{[3-(azetidin-1-ylcarbonyl)azetidin-1-yl]carbonyl}-4-cyclobutyl-1,4-diazepane] |
| 0.5 to 5 | O=C(N1CCN(C2CCC2)CC1)N1CC(O)C1 [Example 2, 1-[(4-cyclobutylpiperazin-1-yl)carbonyl]azetidin-3-ol] |
| < 0.1 | O=C1CN(C(=O)N2CCCN(C3CCC3)CC2)C1 [Example 108, 1-[(4-cyclobutyl-1,4-diazepan-1-yl)carbonyl]azetidin-3-one] |
| < 0.1 | O=C(N1CCCN(C2CCC2)CC1)N1CC(OCc2ccc(Cl)cc2)C1 [Example 97, 1-({3-[(4-chlorobenzyl)oxy]azetidin-1-yl}carbonyl)-4-cyclobutyl-1,4-diazepane] |
